{"source": "patent US11059832B2", "about": "“HPK1 inhibitors and methods of using same” (University Health Network, priority 2015, dated 2021)", "type_in_all_cases": "biochemical", "key": {"[1]": {"biological_target": "T1, FLT3 (Homo sapiens, UniProt P36888)", "T1 construct": "purchased Invitrogen PV3182", "T1 sequence (P36888 27-993)": "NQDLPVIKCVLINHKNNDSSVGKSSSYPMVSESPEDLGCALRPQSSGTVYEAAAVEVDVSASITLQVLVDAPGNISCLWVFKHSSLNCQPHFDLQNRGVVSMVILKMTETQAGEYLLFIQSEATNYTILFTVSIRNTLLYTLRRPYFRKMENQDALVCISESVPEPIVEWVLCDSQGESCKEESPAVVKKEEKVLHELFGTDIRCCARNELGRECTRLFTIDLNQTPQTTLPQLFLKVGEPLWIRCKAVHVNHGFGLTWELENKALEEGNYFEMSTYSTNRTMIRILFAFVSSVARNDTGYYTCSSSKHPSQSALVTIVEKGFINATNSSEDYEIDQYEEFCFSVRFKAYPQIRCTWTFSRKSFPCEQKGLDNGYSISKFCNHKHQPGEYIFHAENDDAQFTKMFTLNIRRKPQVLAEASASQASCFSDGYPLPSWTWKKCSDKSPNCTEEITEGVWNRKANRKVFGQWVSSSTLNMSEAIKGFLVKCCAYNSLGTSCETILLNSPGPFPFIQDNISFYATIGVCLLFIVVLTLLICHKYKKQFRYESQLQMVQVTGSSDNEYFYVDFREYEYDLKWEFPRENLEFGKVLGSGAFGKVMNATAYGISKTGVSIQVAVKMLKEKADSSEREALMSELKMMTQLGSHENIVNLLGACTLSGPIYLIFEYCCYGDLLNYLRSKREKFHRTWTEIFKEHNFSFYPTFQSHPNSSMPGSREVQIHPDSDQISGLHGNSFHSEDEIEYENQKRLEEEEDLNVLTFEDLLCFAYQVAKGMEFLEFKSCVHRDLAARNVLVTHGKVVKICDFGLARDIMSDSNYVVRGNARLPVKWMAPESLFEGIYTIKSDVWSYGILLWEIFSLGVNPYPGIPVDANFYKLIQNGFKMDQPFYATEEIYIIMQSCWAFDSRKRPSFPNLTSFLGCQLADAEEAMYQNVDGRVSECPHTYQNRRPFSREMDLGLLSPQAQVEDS", "test": "FLT3 inhibition, FRET based Z'-LYTE Kinase Assay", "conditions": "1 nM FLT3, 940 μM ATP; read-out: IC50 Range Flt3", "description": "(§1) FLT3 and LCK compound inhibition were determined using FRET based Z′-LYTE Kinase Assay Kit with Tyrosine 2 peptide as the substrate (Invitrogen cat #PV3191). […] The % inhibition values were determined according to the manufacturer's directions and IC50 values were obtained using a non-linear 4 point logistic curve fit (XLfit4, IDBS)."}, "[2]": {"biological_target": "T2, human HPK1 (MAP4K1) (Homo sapiens, UniProt Q92918)", "T2 construct": "human HPK1 (aa 1-346); purchased Invitrogen PV6355", "T2 sequence (Q92918 1-346)": "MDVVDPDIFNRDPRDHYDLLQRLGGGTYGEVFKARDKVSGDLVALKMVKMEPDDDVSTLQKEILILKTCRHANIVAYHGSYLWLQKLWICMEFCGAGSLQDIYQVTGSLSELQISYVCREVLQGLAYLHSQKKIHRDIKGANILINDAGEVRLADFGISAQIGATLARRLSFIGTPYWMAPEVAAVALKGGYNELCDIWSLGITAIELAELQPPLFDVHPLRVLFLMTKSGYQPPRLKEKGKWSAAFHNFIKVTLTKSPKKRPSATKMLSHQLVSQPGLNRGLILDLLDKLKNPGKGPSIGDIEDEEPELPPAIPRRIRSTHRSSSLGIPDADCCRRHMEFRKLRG", "test": "HPK1 inhibition assay (indirect ELISA)", "conditions": "GST-HPK1 0.6 nM, 12 μM ATP; read-out: IC50 Range HPK1", "method_in_brief": "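GST-tagged human HPK1 (aa 1-346, 0.6 nM) phosphorylated MBP-coated wells with 12 μM ATP in MOPS pH 7.2/Mg2+ buffer for 30 min after 15-min compound preincubation; phospho-Thr detected by antibody ELISA with TMB, 450 nm. Tested at 10 μM or 10-point titration (typically 50-0.1 μM); IC50 by 4-parameter logistic fit.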"}, "[3]": {"biological_target": "T3, LCK (Homo sapiens, UniProt P06239)", "T3 construct": "purchased Invitrogen P3043", "T3 sequence (P06239 whole entry, species assumed)": "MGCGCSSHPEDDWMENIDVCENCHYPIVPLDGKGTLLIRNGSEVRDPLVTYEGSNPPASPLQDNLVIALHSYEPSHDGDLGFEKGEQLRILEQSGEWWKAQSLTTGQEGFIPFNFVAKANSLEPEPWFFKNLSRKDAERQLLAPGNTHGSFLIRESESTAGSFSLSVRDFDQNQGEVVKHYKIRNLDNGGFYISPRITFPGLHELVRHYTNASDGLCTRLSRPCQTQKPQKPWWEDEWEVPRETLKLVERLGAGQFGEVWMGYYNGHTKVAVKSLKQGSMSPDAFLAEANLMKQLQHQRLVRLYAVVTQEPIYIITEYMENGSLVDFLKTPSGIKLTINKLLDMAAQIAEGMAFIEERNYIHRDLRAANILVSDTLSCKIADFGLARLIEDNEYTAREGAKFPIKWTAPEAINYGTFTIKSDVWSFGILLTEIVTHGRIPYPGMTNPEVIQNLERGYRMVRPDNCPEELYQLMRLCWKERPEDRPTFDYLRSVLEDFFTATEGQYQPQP", "test": "LCK inhibition, FRET based Z'-LYTE Kinase Assay", "conditions": "25 nM LCK, 180 μM ATP; read-out: IC50 Range Lck", "description": "as §1"}}, "data": [{"smiles": "CN1CCN(c2ccc3nc(-c4c(N)c5ccsc5[nH]c4=O)[nH]c3c2)CC1", "note": "[Example A1, 4-amino-5-(6-(4-methylpiperazin-1-yl)-1H-benzo[d]imidazol-2-yl)thieno[2,3-b]pyridin-6(7H)-one]", "values": [{"measurement": "IC50", "setting": "[1]", "value": "≤ 50", "unit": "nM"}, {"measurement": "IC50", "setting": "[2]", "value": "≤ 50", "unit": "nM"}, {"measurement": "IC50", "setting": "[3]", "value": "50 to 500", "unit": "nM"}]}]}
